Assay results reported in patent EP4050002A1, “ANTI-PROLIFERATIVE AGENTS” (First Health Pharmaceuticals B.V., priority 2021, dated 2022).
≈ marks a conversion by molar mass, not a printed value. Counter-ions that a name gives are not always drawn. Like-named read-outs stand apart in the source and are kept apart here.

Experiments:
DDX3X = DDX3X (Homo sapiens, UniProt O00571); experiment: nanoDSF enzymatic binding (melting temperature shift); set-up: human DDX3X (residues 132-607, UniProtID: 000571, produced by Proteros GmbH); purchased Proteros GmbH; conditions: DDX3X with AMPPNP 100 µM, no compound
DDX3X, sequence (O00571 132-607): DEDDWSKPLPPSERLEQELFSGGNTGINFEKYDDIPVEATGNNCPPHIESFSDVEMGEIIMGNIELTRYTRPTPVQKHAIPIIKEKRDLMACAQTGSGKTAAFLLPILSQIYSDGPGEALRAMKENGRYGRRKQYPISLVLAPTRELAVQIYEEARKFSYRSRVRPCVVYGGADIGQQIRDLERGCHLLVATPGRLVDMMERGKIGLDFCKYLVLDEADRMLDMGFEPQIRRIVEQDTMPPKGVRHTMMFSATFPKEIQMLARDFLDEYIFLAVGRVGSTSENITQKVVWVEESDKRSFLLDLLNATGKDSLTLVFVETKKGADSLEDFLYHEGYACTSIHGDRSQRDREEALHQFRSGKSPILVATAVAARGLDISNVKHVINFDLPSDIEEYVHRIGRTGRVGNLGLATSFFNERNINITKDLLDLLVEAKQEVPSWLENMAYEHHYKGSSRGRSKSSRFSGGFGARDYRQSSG
Description: The binding of compounds to DDX3X have been assessed by nanoDSF analysis (NanoTemper Technologies GmbH, Flößergasse 4, 81369 München, Germany). NanoDSF technology is a Differential Scanning Fluorimetry method which measures the protein stability with high resolution without the need of a dye. In particular it measures the changes of the intrinsic tryptophan fluorescence at 330 and 350 nm and it is used to determine the melting temperature of a protein. In the folded state the residues of tryptophan are buried in the hydrophobic core. During denaturation the residues are more exposed and the fluorescence changes in both intensity and wavelength. In a typical experiment, the protein is mixed with the ligand in the reaction buffer and transferred into a capillary. The fluorescence is monitored over temperature gradient between 20 and 95°C with an increment of 2.5°C per minute. The interaction of the ligand to the folded state of the protein shifts the protein melting temperature (Tm) at higher or lower temperature.
Experimental conditions: the experiments were conducted with the device Prometheus NT.48 (NanoTemper Technologies GmbH), the enzyme used was the human DDX3X (residues 132-607, UniProtID: 000571, produced by Proteros GmbH). The assessed compounds were dissolved in pure DMSO adequate to obtain a concentration of compound of 100µM and DMSO 1% (v:v) in final solution. Reaction buffer for DDX3X was 20 mM HEPES, pH 7.5, 0.5 mM TCEP, 500 mM NaCl, 10% (v:v) Glycerin, with a final reaction volume of 10 µL and a final DMSO concentration of 1% (v:v). The reaction was performed in "High sensitivity capillaries" in the range of 20-95°C with a heating rate of 2.5°C/min, with an incubation time of 60 minutes.
• 1) Add appropriate volume of target enzyme in reaction buffer • 2) Add compound(s) in 100% DMSO (1% final DMSO conc.) • 3) Fill the capillary • 4) Measure fluorescence
The assay development was performed with DDX3X protein alone showing a Tm at 54.6 °C.
Binding of compound 5 was assessed with the NanoDSF technique, evaluating the association of the aforementioned compound with APO DDX3X and in presence of a competitor for the ATP binding site, Adenylyl imidodiphosphate (AMPPNP) to assess competition of compound 5 for the DDX3X ATP binding site. Table 6. Final protein and compound concentrations in the various assay setup:
All the measures were performed in triplicate and the average (Mean Tm) and standard deviation (SD) were calculated with the following equations: [formula] and SD = sqrt((∑((Tm−Mean Tm))^2)/(n−1)) [formula]
A change of 5xSD from the 1% DMSO control mean is considered to be a significant Tm change. Test of DDX3X with 1% DMSO was performed to obtain the reference melting temperature of the protein alone. Compounds are considered as binders if the Tm shifts by >= 5 times the standard deviation of the control (protein in the absence of compound). Table 7. DDX3X melting temperatures (Tm) at various experimental conditions

MDAMB231 cell line = experiment: Cytotoxicity, cell count method; type: cell-based, human; conditions: MDAMB231, 72 hours of incubation
Experimental: (§1) The anti-tumor activity of the compounds of the present invention was evaluated as the effect on the proliferation and survival of tumor cells by counting the number of living cells in presence or absence of the compounds ("cell count method"), and as the effect on the viability and metabolic activity of the cells, by using particular substrates that are converted by cellular enzymes into coloured or luminescent products, proportionally with metabolic activity and state of the cell, such as the MTS tetrazolium compound ("MTS method") or luciferin ("ATP-based method") respectively.
(§2) Cells were seeded at 3 to 5 x 10^4 cells/well density depending on cell lines and maintained at 37°C in 5% CO2. After 24 hours cells were treated with ascending concentrations of the investigational compounds and the reference (5-fluoro-Uracyl) in a range from 0 to 100 µM. Compounds were dissolved in DMSO which final concentration in each well was 0.5% v:v. After 72 h of incubation with compounds, the cells were detached with trypsin and re-suspended in 1 ml of complete medium; the cell number was evaluated using a Z2 Coulter Counter ("cell count method") (Attallah and Johnson, A simple highly sensitive methods for the determination of cell viability using an electronic particle analyzer, Coulter counter J. Immunol. Methods. 1981, 41, 155; Leonardi et al., Activated kinase screening identifies the IKBKE oncogene as a positive regulator of autophagy. Autophagy, 2019, 15, 312). Alternatively, after the 72 hours of incubation with compounds, the MTS solution (CellTiter 96® AQueous One Solution Cell Proliferation Assay) is added to each well and absorbance at 490 nm wavelength is read after 2 hours of incubation ("MTS method"). Results in Tables 8-13, 17, 18 were obtained with the cell count method. Results in Tables 14-15 were obtained with the MTS method. Results in Table 16 were obtained with ATP-based method.

A549 Red-FLuc = experiment: Cytotoxicity, cell count method; type: cell-based; conditions: Homo sapiens, 72 hours of incubation
Experimental: as §1, §2

[1] = Kinetic solubility (turbidimetry); type: physicochemical; conditions: for solubility at 2 h: 37 °C, kinetic from dmso stock; for Absorbance at 620nm: 2 h
Experimental: Kinetic solubility was assessed in phosphate buffered saline at pH 7.4 according to the turbidimetry method. Turbidity (precipitation) was measured by absorbance at 620 nm following incubation at 37°C for 2 h. Stock solution of compounds in DMSO were prepared to produce the desired final range of concentrations, then these were added to the buffer to obtain the final test compound concentrations (1 µM, 3 µM, 10 µM, 30 µM, 100 µM), with a final DMSO concentration 1%). Solubility was estimated from the concentration of tested compound that produced a significant increase in absorbance (≥ 0.003 OD at 620 nm) above vehicle control (1% DMSO in water). Miconazole, Reserpine and Propranolol were used as controls.

Nc1ncnc2c1ncn2[C@@H]1O[C@H](COP(=O)(O)OP(=O)(O)NP(=O)(O)O)[C@@H](O)[C@H]1O [AMPPNP, Adenylyl imidodiphosphate, reference compound]
Tm (DDX3X): 54.7 °C
effect on Tm upon binding (DDX3X): no significant effect on Tm

CCCCc1noc(-c2ccc(-c3nnc(-c4cccc(Cl)c4F)o3)cc2)n1 [Compound 1, 3-Butyl-5-(4-(5-(3-chloro-2-fluorophenyl)-1,3,4-oxadiazol-2-yl)phenyl)-1,2,4-oxadiazole]
IC50 (MDAMB231 cell line; Homo sapiens, MDA-MB-231, 72 h): 1000 µM

CCCCc1cn(-c2ccc(-c3nnc(-c4ccccc4)o3)cc2)nn1 [Compound 2, 2-(4-(4-butyl-1H-1,2,3-triazol-1-yl)phenyl)-5-phenyl-1,3,4-oxadiazole]
IC50 (MDAMB231 cell line; Homo sapiens, MDA-MB-231, 72 h): 8.11 µM

CCCCc1cn(-c2ccc(-c3nnc(-c4ccccc4)o3)cc2)nn1 [Compound 3, 2-(4-(4-butyl-1H-1,2,3-triazol-1-yl)phenyl)-5-phenyl-1,3,4-oxadiazole]
IC50 (MDAMB231 cell line): 6.07 µM

CCCCc1cn(-c2ccc(-c3nnc(-c4ccccc4C)o3)cc2)nn1 [Compound 4, 2-(4-(4-butyl-1H-1,2,3-triazol-1-yl)phenyl)-5-(o-tolyl)-1,3,4-oxadiazole]
IC50 (MDAMB231 cell line; Homo sapiens, MDA-MB-231, 72 h): 38.9 µM

CCCCc1cn(-c2ccc(-c3nnc(-c4cc(C(C)C)ccc4C)o3)cc2)nn1 [Compound 6, 2-(4-(4-butyl-1H-1,2,3-triazol-1-yl)phenyl)-5-(5-isopropyl-2-methylphenyl)-1,3,4-oxadiazole]
IC50 (MDAMB231 cell line; Homo sapiens, MDA-MB-231, 72 h): 34.6 µM

CCCCc1cn(-c2ccc(-c3nnc(-c4cccc5cnccc45)o3)cc2)nn1 [Compound 7, 2-(4-(4-butyl-1H-1,2,3-triazol-1-yl)phenyl)-5-(isoquinolin-5-yl)-1,3,4-oxadiazole]
IC50 (MDAMB231 cell line; Homo sapiens, MDA-MB-231, 72 h): 216 µM

CCCCc1cn(-c2ccc(-c3nnc(-c4ccccc4OC(F)F)o3)cc2)nn1 [Compound 8, 2-(4-(4-butyl-1H-1,2,3-triazol-1-yl)phenyl)-5-(2-(difluoromethoxy)phenyl)-1,3,4-oxadiazole]
IC50 (MDAMB231 cell line; Homo sapiens, MDA-MB-231, 72 h): 1000 µM

CCCCc1cn(-c2ccc(-c3nnc(-c4ccccc4F)o3)cc2)nn1 [Compound 9, 2-(4-(4-butyl-1H-1,2,3-triazol-1-yl)phenyl)-5-(2-fluorophenyl)-1,3,4-oxadiazole]
IC50 (MDAMB231 cell line; Homo sapiens, MDA-MB-231, 72 h): 43.1 µM

CCCCc1cn(-c2ccc(-c3nnc(-c4ccc(C5CCNCC5)cc4)o3)cc2)nn1 [Compound 19, 2-(4-(4-butyl-1H-1,2,3-triazol-1-yl)phenyl)-5-(4-(piperidin-4-yl)phenyl)-1,3,4-oxadiazole hydrochloride]
IC50 (A549 Red-FLuc): 1.7 µM

CCCCc1cn(-c2ccc(-c3nnc(-c4cccc(OC5CCCC5)c4)o3)cc2)nn1 [Compound 22, 2-(4-(4-butyl-1H-1,2,3-triazol-1-yl)phenyl)-5-(3-(cyclopentyloxy)phenyl)-1,3,4-oxadiazole]
IC50 (A549 Red-FLuc): 3.42 µM

Clc1ccc(COC(Cn2ccnc2)c2ccc(Cl)cc2Cl)c(Cl)c1 (stereo not drawn) [Miconazole]
solubility at 2 h ([1]; pH 7.4, aqueous buffer): 10 to 30 µM (≈ 4.16 to 12.5 µg/mL)
Absorbance at 620nm ([1]; 1 µM, pH 7.4): 0.037
Absorbance at 620nm ([1]; 3 µM, pH 7.4): 0.037
Absorbance at 620nm ([1]; 10 µM, pH 7.4): 0.037
Absorbance at 620nm ([1]; 30 µM, pH 7.4): 0.044
Absorbance at 620nm ([1]; 100 µM, pH 7.4): 0.053

CC(C)NCC(O)COc1cccc2ccccc12 (stereo not drawn) [Propranolol]
solubility at 2 h ([1]; aqueous buffer, kinetic solubility, PBS pH 7.4, read-out: solubility): > 100 µM
Absorbance at 620nm ([1]; conc. 1 µM, PBS pH 7.4, 37°C): 0.038
Absorbance at 620nm ([1]; conc. 3 µM, PBS pH 7.4, 37°C): 0.037
Absorbance at 620nm ([1]; conc. 10 µM, PBS pH 7.4, 37°C): 0.039
Absorbance at 620nm ([1]; conc. 30 µM, PBS pH 7.4, 37°C): 0.038
Absorbance at 620nm ([1]; conc. 100 µM, PBS pH 7.4, 37°C): 0.037

COC(=O)[C@H]1[C@H]2C[C@@H]3c4[nH]c5cc(OC)ccc5c4CCN3C[C@H]2C[C@@H](OC(=O)c2cc(OC)c(OC)c(OC)c2)[C@@H]1OC [Reserpine]
solubility at 2 h ([1]; pH 7.4, aqueous buffer): 30 to 100 µM (≈ 18.3 to 60.9 µg/mL)
Absorbance at 620nm ([1]; 1 µM, pH 7.4): 0.037
Absorbance at 620nm ([1]; 3 µM, pH 7.4): 0.037
Absorbance at 620nm ([1]; 10 µM, pH 7.4): 0.037
Absorbance at 620nm ([1]; 30 µM, pH 7.4): 0.040
Absorbance at 620nm ([1]; 100 µM, pH 7.4): 0.058
